Measurements from paper PMC6973011, “Stafia‐1: a STAT5a‐Selective Inhibitor Developed via Docking‐Based Screening of in Silico O‐Phosphorylated Fragments” (Chemistry (Weinheim an Der Bergstrasse, Germany), 2019).
Numbering of substitutions follows the chain as printed.

Tests used:
Assay type in all cases: binding
[1] = biological target: T1, STAT5a Trp566Arg/Lys644Met (Homo sapiens, UniProt P42229, K644M/W566R); assay: Fluorescence polarization assay, double mutant STAT5a Trp566Arg/Lys644Met; conditions: FP assay
T1 construct: made in house
T1 sequence (P42229 1-794 W566R/K644M): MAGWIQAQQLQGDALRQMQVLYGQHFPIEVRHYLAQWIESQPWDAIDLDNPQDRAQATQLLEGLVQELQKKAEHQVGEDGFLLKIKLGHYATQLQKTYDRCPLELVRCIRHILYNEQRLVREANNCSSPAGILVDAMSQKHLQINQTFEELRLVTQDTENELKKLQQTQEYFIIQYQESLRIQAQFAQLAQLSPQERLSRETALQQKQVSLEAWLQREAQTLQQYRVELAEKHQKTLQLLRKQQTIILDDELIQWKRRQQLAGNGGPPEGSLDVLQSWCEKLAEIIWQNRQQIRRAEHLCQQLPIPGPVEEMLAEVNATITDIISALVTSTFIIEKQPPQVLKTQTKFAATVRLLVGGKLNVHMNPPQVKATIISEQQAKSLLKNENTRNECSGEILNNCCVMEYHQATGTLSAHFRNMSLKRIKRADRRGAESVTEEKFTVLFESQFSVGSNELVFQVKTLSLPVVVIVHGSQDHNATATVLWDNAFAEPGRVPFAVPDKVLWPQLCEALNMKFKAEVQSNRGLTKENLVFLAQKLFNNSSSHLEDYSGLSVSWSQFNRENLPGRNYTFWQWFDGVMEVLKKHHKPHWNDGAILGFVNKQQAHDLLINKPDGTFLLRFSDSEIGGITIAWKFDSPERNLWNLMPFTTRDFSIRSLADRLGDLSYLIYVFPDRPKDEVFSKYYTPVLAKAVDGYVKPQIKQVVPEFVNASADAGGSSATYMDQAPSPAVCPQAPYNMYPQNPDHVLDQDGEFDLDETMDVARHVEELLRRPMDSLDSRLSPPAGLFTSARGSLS

[2] = biological target: T2, STAT5b Arg566Trp/Met639Asn/Met644Lys (STAT5b‐3M) (Homo sapiens, UniProt P51692, M639N/M644K/R566W); assay: Fluorescence polarization assay, triple mutant STAT5b-3M
T2 construct: made in house
T2 sequence (P51692 1-787 R566W/M639N/M644K): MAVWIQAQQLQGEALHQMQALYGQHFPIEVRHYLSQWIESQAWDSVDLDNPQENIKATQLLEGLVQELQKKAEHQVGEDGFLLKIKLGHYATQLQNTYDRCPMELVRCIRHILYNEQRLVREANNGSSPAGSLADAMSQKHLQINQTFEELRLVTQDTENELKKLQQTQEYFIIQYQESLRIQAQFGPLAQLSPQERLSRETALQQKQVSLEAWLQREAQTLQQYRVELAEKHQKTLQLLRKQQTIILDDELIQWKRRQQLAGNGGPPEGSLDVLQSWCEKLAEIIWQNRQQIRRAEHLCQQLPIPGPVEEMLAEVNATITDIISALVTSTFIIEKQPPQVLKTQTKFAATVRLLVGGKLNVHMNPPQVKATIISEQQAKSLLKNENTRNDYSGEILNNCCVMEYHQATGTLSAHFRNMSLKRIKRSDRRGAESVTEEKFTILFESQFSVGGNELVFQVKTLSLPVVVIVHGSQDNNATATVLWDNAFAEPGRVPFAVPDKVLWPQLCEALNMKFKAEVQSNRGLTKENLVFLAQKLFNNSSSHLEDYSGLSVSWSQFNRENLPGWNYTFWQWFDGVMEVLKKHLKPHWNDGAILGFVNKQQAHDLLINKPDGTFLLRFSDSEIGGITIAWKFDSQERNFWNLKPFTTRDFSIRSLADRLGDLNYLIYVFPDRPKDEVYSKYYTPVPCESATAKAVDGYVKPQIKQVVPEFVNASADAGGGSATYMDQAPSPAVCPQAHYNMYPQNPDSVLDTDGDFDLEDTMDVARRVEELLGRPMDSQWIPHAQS

[3] = biological target: T3, STAT5b Gln636Pro/Met639Asn/Phe640Leu/Met644Lys/Asn664Ser/Tyr679Phe (STAT5b‐6M) (Homo sapiens, UniProt P51692, F640L/M639N/M644K/N664S/Q636P/Y679F); assay: Fluorescence polarization assay, mutant STAT5b-6M
T3 construct: made in house
T3 sequence (P51692 1-787 Q636P/M639N/F640L/M644K/N664S/Y679F): T2 sequence (P51692 1-787 R566W/M639N/M644K) with W566R, Q636P, F640L, N664S, Y679F

COc1cc(-c2cc(OP(=O)(O)O)cc(-c3cc(OC)c(OC)c(OC)c3)c2)cc(OC)c1OC [Compound 20]
inhibition at 200 µM [1]: 44 ± 4%
IC50 ([2]; FP assay): 101 ± 11 µM
Ki ([2]; FP assay): 49 ± 5.4 µM
activity gap between STAT5b-3M and STAT5b-7M ([2]; FP assays): 2.5 fold
inhibition at 200 µM ([3]; FP assay, 200 µM): 46 ± 8%
activity against STAT5b-6M lower than activity against wild-type STAT5a ([3]; FP assays): approximately 10 fold
